Test results published in patent US11884710B2, “Peptide compounds and methods of use in wound healing” (priority 2013, dated 2024).
Square brackets hold non-standard residues; d marks the D form. Peptide text beside a SMILES is read from it. PEG2 = NCCOCCOCCC(=O)O

How the values were obtained:
[1] = test system: Escherichia coli; assay: In vitro bactericidal activity against Escherichia coli; format: cell-based; conditions: E. coli; inoculum 1×10^6 CFU/ml; 60 to 180 minute incubation
Protocol: (§1) In vitro bactericidal activity: The three peptide compounds BCC01-5RMP (SEQ ID NO:23), BCC002-5RMP (SEQ ID NO:21), and BCC003-5RMP (SEQ ID NO:22) were assayed for in vitro bactericidal activity against Pseudomonas aeruginosa, Escherichia coli, Salmonella typhimurium, and Acinetobacter baumannii. The starting inoculum for all experiments was 1×10^6 colony forming units (CFU)/ml. The CFU remaining at the end of 60 to 180 minute incubation was determined, and the data plotted as a log reduction in CFU/ml.

[2] = test system: release of TNF-α from LPS-stimulated RAW264.7 cells; assay: LPS neutralization: TNF-α release from LPS-stimulated RAW264.7 cells; format: cell-based, mouse
Protocol: (§2) The well-characterized response of RAW264.7 macrophage cells was used to produce tumor necrosis-factor-alpha (TNF-α) in response to LPS to determine whether the peptides could dampen the release of this cytokine. […] Importantly, pre-treatment (3 hours prior to LPS addition) as well as post-treatment of the RAW264.7 cells (3 hours post LPS addition) with peptide dampened the cytokine release. […] The finding that the novel peptides bind and neutralize the effect of Pseudomonas LPS is of critical importance since this ensures that the novel therapeutic peptide compounds described herein will not only kill the bacteria, but will also neutralize the LPS endotoxin released by the bacteria which plays such an important role in the rapid progression of sepsis.
(§3) BCC01-5RMP (SEQ ID NO:23), BCC002-5RMP (SEQ ID NO:21), and BCC003-5RMP (SEQ ID NO:22) were tested for their ability to bind lipopolysaccharide (LPS) using the limulus amebocyte lysate method (LAL). […] There was no statistical difference in their ability to bind LPS using the LAL technique. The ability of the peptides to neutralize LPS was assessed by determining their ability to attenuate the release of tumor necrosis factor-alpha (TNF-α) from LPS-stimulated RAW264.7 cells (a mouse macrophage cell line). […] No significant differences were observed between the three peptides to neutralize LPS as measured by cytokine release. Peptides based on sequence 120-146 (SEQ ID NOS:28-31) also bind and neutralize Pseudomonas LPS.

[3] = test system: Pseudomonas LPS; assay: LPS binding, Limulus Amebocyte Lysate (LAL) assay; conditions: LAL method
Protocol: as §2, §3

[4] = test system: Acinetobacter baumannii; assay: In vitro bactericidal activity against Acinetobacter baumannii; format: cell-based; conditions: inoculum 1×10^6 CFU/ml, 60 to 180 minute incubation
Protocol: as §1

[5] = test system: P. aeruginosa ATCC 27853; format: cell-based, Pseudomonas aeruginosa; conditions: Pseudomonas; inoculum 1×10^6 CFU/ml; 60 to 180 minute incubation
Protocol: as §1
Table 4 further compares the activity of several other compounds, including the “5R” versions of BCC01, i.e., SEQ ID NO:20 (which comprises SEQ ID NO: 7 with five additional arginines), the “5R” version of BCC002 (i.e., SEQ ID NO:18, which comprises SEQ ID NO: 1 with five additional arginines), and the 5RMP versions of BCC01 (SEQ ID NO: 23) and BCC002 (SEQ ID NO: 21). The data generally indicate the superiority of BCC003-5RMP (SEQ ID NO:22) and BCC002-5RMP (SEQ ID NO: 21) and the superiority of the 5R or 5RMP versions of the peptide over the “AEEP only” peptide against P. aeruginosa.

[6] = test system: Salmonella typhimurium; assay: In vitro bactericidal activity against Salmonella typhimurium; format: cell-based; conditions: inoculum 1×10^6 CFU/ml, 60 to 180 minute incubation
Protocol: as §1

| Compound | in vitro bactericidal activity, in words [1] | neutralization of LPS: attenuation of TNF-α release [2] | binding of Pseudomonas LPS [3] | in vitro bactericidal activity, in words [4] | in vitro bactericidal activity, in words [5] | in vitro bactericidal activity, in words [6] |
| --- | --- | --- | --- | --- | --- | --- |
| CC[C@H](C)[C@H](NC(=O)[C@H](CC(C)C)NC(=O)[C@H](C)NC(=O)CNC(=O)CNC(=O)[C@H](CS)NC(=O)[C@H](Cc1ccccc1)NC(=O)[C@H](Cc1c[nH]cn1)NC(=O)[C@H](CCCNC(=N)N)NC(=O)CNC(=O)[C@H](CCC(N)=O)NC(=O)[C@H](CC(N)=O)NC(=O)[C@H](CCCNC(=N)N)NC(=O)[C@H](CCCNC(=N)N)NC(=O)[C@H](CCCNC(=N)N)NC(=O)[C@H](CCCNC(=N)N)NC(=O)CCOCCOCCNC(=O)CCOCCOCCN)C(=O)N[C@@H](Cc1c[nH]cn1)C(=O)N[C@@H](C)C(=O)N[C@@H](CCCNC(=N)N)C(=O)N[C@@H](Cc1ccccc1)C(=O)N[C@H](C(=O)N[C@@H](CCSC)C(=O)N[C@H](C(=O)N[C@@H](C)C(=O)N[C@@H](C)C(=O)N[C@@H](CO)C(=O)N[C@@H](CS)C(=O)N[C@@H](Cc1ccccc1)C(=O)N[C@@H](CCC(N)=O)C(=O)N[C@@H](CCCNC(=N)N)C(=O)O)[C@@H](C)O)C(C)C [BCC01-5RMP] (H-[PEG2][PEG2]RRRRNQGRHFCGGALIHARFVMTAASCFQR-OH; C-terminus assumed) | strong, but lesser activity | attenuate the release of TNF-α | bound Pseudomonas LPS | most active | most active | strong, but lesser activity |
| CC[C@H](C)[C@H](NC(=O)[C@H](CC(C)C)NC(=O)[C@H](C)NC(=O)CNC(=O)CNC(=O)[C@H](CS)NC(=O)[C@H](Cc1ccccc1)NC(=O)[C@H](Cc1c[nH]cn1)NC(=O)[C@H](CCCNC(=N)N)NC(=O)CNC(=O)[C@H](CCC(N)=O)NC(=O)[C@H](CC(N)=O)NC(=O)[C@H](CCCNC(=N)N)NC(=O)[C@H](CCCNC(=N)N)NC(=O)[C@H](CCCNC(=N)N)NC(=O)[C@H](CCCNC(=N)N)NC(=O)CCOCCOCCNC(=O)CCOCCOCCN)C(=O)N[C@@H](Cc1c[nH]cn1)C(=O)N[C@@H](C)C(=O)N[C@@H](CCCNC(=N)N)C(=O)N[C@@H](Cc1ccccc1)C(=O)N[C@H](C(=O)N[C@@H](CCSC)C(=O)N[C@H](C(=O)N[C@@H](C)C(=O)N[C@@H](C)C(=O)N[C@@H](CO)C(=O)N[C@@H](CO)C(=O)N[C@@H](Cc1ccccc1)C(=O)N[C@@H](CCC(N)=O)C(=O)N[C@@H](CCCNC(=N)N)C(=O)O)[C@@H](C)O)C(C)C [BCC03-5RMP] (H-[PEG2][PEG2]RRRRNQGRHFCGGALIHARFVMTAASSFQR-OH) | strong, but lesser activity | attenuate the release of TNF-α | bound Pseudomonas LPS | most active | most active | strong, but lesser activity |
